For test [1], the system named is rAU565-derived tumor. Nature of the test: rAU565 mammary fat pad xenograft. The settings on record: 100 mg/kg each drug, twice daily by oral gavage.
Procedure: (§1) Six week-old female nude mice were purchased from NCI Frederic. Xenograft tumors were produced by injection into the mammary fat pad with cells (10×10^6). Tumor volumes were calculated every 3-4 days based on caliper measurements of the short (a) and long (b) tumor diameters (volume=a2b/2). […] Mice were dosed orally with vehicle alone, lapatinib (100 mg/kg), Nutlin-3 (100 mg/kg), or combination of both twice daily by gavage.
Test [2] has as its system AU565-derived tumor. Put plainly: AU565 mammary fat pad xenograft. The settings on record: 100 mg/kg each drug, twice daily by oral gavage. In kind it is in vivo, mouse.
Procedure: as §1
Test [3] concerns the target T1, CAS-MDM2 interaction (Homo sapiens, UniProt Q00987).
T1 construct: association of endogenous MDM2 was analyzed by immunoblotting; expressed in transfected cells; host or cells: BT474 and rBT474 cells transfected with FLAG-CAS; MDM2 endogenous
Put plainly: CAS-MDM2 co-immunoprecipitation. Type of test: cell-based. The settings on record: 1 μM lapatinib, 24 hours.
Procedure: BT474 and rBT474 (left) or AU565 and rAU565 cells (right) cultured in the absence of lapatinib for one week were treated with 1 μM lapatinib and the cells were harvested at various time points. FIG. 11B is an immmunoblot for CAS and Actin. rBT474 cells were maintained in the presence of 1 M lapatinib and the cells were harvested at various time points following removal of lapatinib. […] BT474 and rBT474 cells were transiently transfected with FLAG-tagged CAS and subsequently treated with 50 μg/ml cycloheximide (CHX) and 1 μM lapatinib and the cells were harvested at various time points. […] BT474 and rBT474 (left) or SKBR3 and rSKBR3 cells (right) were co-transfected with FLAG-CAS and HA-Ub. Cells were treated with 1 μM lapatinib for 24 hours in the presence of z-VAD. […] FIG. 11E is an immunoblot for FLAG-tagged proteins retrieved by immunoprecipitation and association with MDM2. […] FIG. 11F is an immunoblot for CAs after immunoprecipitation for FLAG. […] Cells were treated with 10 μM MG132 for 3 hours. […] FIG. 11I is an immunoblot for MDM2 or CAs after immunoprecipitation with FLAG. BT474 and rBT474 cells were transfected with FLAG-CAS. Cells were treated with 1 μM lapatinib for 24 hours in the presence of z-VAD. After treatment with 10 μM MG132 for 5 hours, FLAG-CAS was retrieved by immunoprecipitation and association of endogenous MDM2 was analyzed by immunoblotting. […]

The test system of test [4] is Mcl-1. Nature of the test: Mcl-1 ubiquitylation (FLAG-Mcl-1 / HA-Ub immunoprecipitation). The settings on record: 1 μM lapatinib, 24 hours. Type of test: cell-based. The procedure: FIG. 3 is a set of photographs showing that Mcl-1 is stabilized in lapatinib-resistant cells. […] FIG. 3B is a set of immunoblots showing the levels of HER2 and phospho-HER2 in untreated cells and cells treated with lapatinib. Cells were treated with or without lapatinib (1 μM) for 24 hours in the presence of the caspase inhibitor z-VAD (50 μM). The cells were harvested and cell lysates were immunoblotted using antibodies against phospho-HER2 (Y877) and total HER2. FIG. 3C is an immunoblot for phospho-AKT (T308) and total AKT. BT474 and rBT474 cells were treated with 1 μM lapatinib in the presence of 50 μM z-VAD. At the indicated time points, the cells were harvested and immunoblotted. FIG. 3D is an immunoblot for phospho-Erl1/2(T202/Y204) and total Erk1/2. BT474 and rBT474 cells were treated with 1 μM lapatinib in the presence of 50 μM z-VAD. At the indicated time points, the cells were harvested and immunoblotted. […] FIG. 3F is an autoradiograph showing the ^35[S] radioactivity in lysates containing ^35[S]-Mcl-1 at the indicated time points. ^35[S]-labeled Mcl-1 protein was incubated in cell-free lysates prepared from BT474 and rBT474 cells (top) or SKBR3 and rSKBR3 cells (bottom). […] FLAG-Mcl-1 was retrieved by immunoprecipitation using anti-flag agarose, and Mcl-1 ubiquitylation was analyzed by immunoblotting for HA (*non-specific band, **IgG heavy chain). […]

For test [5], the system named is BT474, SKBR3, AU565 and SUM190 cells. Nature of the test: Apoptotic cell death (Annexin V FACS) in parental lapatinib-sensitive lines. In kind it is cell-based. Particulars: all four parental sensitive cell lines. The procedure:
FIG. 2 is a set of graphs showing the percentage of cells undergoing apoptotic cell death for each of the four cell lines and their matched resistant cell line in the presence or absence of lapatinib and/or an MDM2 inhibitor, MI-219, as measured by FACS analysis for Annexin V. Results are expressed as mean +/− SEM of Annexin V positive cells.
BT474, SKBR3, and AU565 cells were obtained from ATCC. SUM190 cells were obtained from Asterand, Inc. All cell lines were cultured in RPMI medium containing 10% fetal bovine serum (FBS). Lapatinib-resistant cells (rBT474, rSKBR3, rAU565, and rSUM190) were established as previously described^14. Cobleigh, et al. J. Clin. Oncol. 17, 2639-2648 (1999). Lapatinib-resistant cells were grown in the presence of 1 μM lapatinib unless otherwise stated.

Test [6] relates to rBT474 xenografts. Nature of the test: rBT474 mammary fat pad xenograft. The settings on record: 100 mg/kg each drug, twice daily by oral gavage.
Procedure: Forty-eight hours after siRNA transfection, cells were treated with 1 μM lapatinib for 48 hours, and cells were harvested and subjected to Annexin V staining. The percentage of Annexin V-positive cells was analyzed by FACS. Results are expressed as a mean percentage±SEM and analyzed by t-test (*P<0.05). […] The oral administration of lapatinib (100 mg/kg, twice daily by oral gavage) began when the average tumor volume surpassed 300 mm^3. Results are expressed as a mean percentage±SEM. […] After 36 hours, cells were harvested and immunoblotted. […] BT474 and rBT474 cells were injected into the mammary fad pad of each mouse. When tumors developed to a size of 200 mm^3, the mice were randomly assigned to receive vehicle, lapatinib (100 mg/kg), Nutlin-3 (100 mg/kg), or Lapatinib+Nutlin-3 and treated twice daily by oral gavage. Results are expressed as a mean percentage±SEM. […] Percentage of apoptotic cell death was measured by FACS analysis using Annexin V. Results are expressed as a mean percentage±SEM of Annexin V-positive cells (*P<0.05 by t-test).
Six week-old female nude mice were purchased from NCI Frederic. Xenograft tumors were produced by injection into the mammary fat pad with cells (10×10^6). Tumor volumes were calculated every 3-4 days based on caliper measurements of the short (a) and long (b) tumor diameters (volume=a2b/2). […]
Test [7] concerns Mcl-1. Put plainly: Immunoblot of Mcl-1 protein levels. In kind it is cell-based. The settings on record: 1 μM lapatinib. The procedure: FIG. 3 is a set of photographs showing that Mcl-1 is stabilized in lapatinib-resistant cells. […] FIG. 3B is a set of immunoblots showing the levels of HER2 and phospho-HER2 in untreated cells and cells treated with lapatinib. Cells were treated with or without lapatinib (1 μM) for 24 hours in the presence of the caspase inhibitor z-VAD (50 μM). The cells were harvested and cell lysates were immunoblotted using antibodies against phospho-HER2 (Y877) and total HER2. FIG. 3C is an immunoblot for phospho-AKT (T308) and total AKT. BT474 and rBT474 cells were treated with 1 μM lapatinib in the presence of 50 μM z-VAD. At the indicated time points, the cells were harvested and immunoblotted. FIG. 3D is an immunoblot for phospho-Erl1/2(T202/Y204) and total Erk1/2. BT474 and rBT474 cells were treated with 1 μM lapatinib in the presence of 50 μM z-VAD. At the indicated time points, the cells were harvested and immunoblotted. FIG. 3E is an immunoblot for Mcl-1, Bim, and Actin. BT474 and rBT474 cells (left) or SKBR3 and rSKBR3 cells (right) were treated with 1 μM lapatinib. The cells were harvested at the indicated time points and immunoblotted. FIG. 3F is an autoradiograph showing the ^35[S] radioactivity in lysates containing ^35[S]-Mcl-1 at the indicated time points. ^35[S]-labeled Mcl-1 protein was incubated in cell-free lysates prepared from BT474 and rBT474 cells (top) or SKBR3 and rSKBR3 cells (bottom). FIG. 3G is an autograph showing the ^35[S]-labeled Mcl-1 to monitor Mcl-1 stability over time. The ^35[S]-labeled Mcl-1 was incubated in lysates prepared from rBT474 cells treated with or without 1 μM lapatinib. FIG. 3H is an immunoblot for HA. SKBR3 or rSKBR3 cells were co-transfected with FLAG-Mcl-1 and HA-Ubiquitin (Ub). […] Cells were harvested after treatment with 10 μM MG 132 for 4 hours. FLAG-Mcl-1 was retrieved by immunoprecipitation using anti-flag agarose, and Mcl-1 ubiquitylation was analyzed by immunoblotting for HA (*non-specific band, **IgG heavy chain).
(In western blotting, separated proteins are transferred to a membrane and probed.)

T1 sequence (Q00987 whole entry): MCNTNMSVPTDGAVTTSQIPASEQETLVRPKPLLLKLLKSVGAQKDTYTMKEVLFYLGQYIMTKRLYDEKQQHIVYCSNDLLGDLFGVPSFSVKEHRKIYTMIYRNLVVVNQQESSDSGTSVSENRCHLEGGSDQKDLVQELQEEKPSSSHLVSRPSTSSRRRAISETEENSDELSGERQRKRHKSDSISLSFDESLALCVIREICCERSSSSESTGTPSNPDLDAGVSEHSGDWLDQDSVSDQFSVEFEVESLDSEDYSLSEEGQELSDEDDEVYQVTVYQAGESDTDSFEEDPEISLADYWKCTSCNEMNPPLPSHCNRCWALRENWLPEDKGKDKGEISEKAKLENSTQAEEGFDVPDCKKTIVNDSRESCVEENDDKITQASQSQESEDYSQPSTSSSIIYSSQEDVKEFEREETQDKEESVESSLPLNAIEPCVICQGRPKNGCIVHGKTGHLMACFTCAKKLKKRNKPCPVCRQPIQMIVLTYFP

On to `CS(=O)(=O)CCNCc1ccc(-c2ccc3ncnc(Nc4ccc(OCc5cccc(F)c5)c(Cl)c4)c3c2)o1` [lapatinib], for which, in test [1], the rAU565-derived tumor growth result was “not rAU565-derived tumor growth”. The AU565-derived tumor growth result in test [2] was “substantially inhibited”. Further, the CAS-MDM2 interaction result in test [3] (BT474 cells) is listed as “decreased”; in test [3] (rBT474 cells) it was “enhanced”. The results for the Mcl-1 ubiquitylation entry in test [4] (SKBR3 cells) and in test [4] (rSKBR3 cells) were “enhanced” and “diminished”, respectively. Besides, the “apoptotic cell death in response to lapatinib” value in test [5] was “died from apoptosis”. Further, the rBT474-derived tumor growth result in test [6] is given as “Neither lapatinib nor Nutlin-3 inhibited”. The Mcl-1 protein levels entry in test [7] (resistant cells) was “increased”; in test [7] (sensitive cells), “decreased”.

For the origin of these results see patent US9937178B2, “Methods of identifying and using MDM2 inhibitors” (DUKE UNIVERSITY, priority 2011, dated 2018).
